Several values for one entry are separate records, joined by “and”; a condition that tells them apart may be missing. Equal values may be shown once. Read-outs that look alike come from different tables or passages of the source.
Columns and labels:
A(H1N1pdm09) 100% WT = system: A(H1N1pdm09) 100% WT; set-up: species or system ferrets (Mustela putorius furo); AUC (area under the curve of nasal wash viral titer): unit not given beside the values; conditions: in vivo
A(H3N2) 100% WT = system: A(H3N2) 100% WT; set-up: species or system ferrets (Mustela putorius furo); conditions: in vivo
A(H3N2)-WT [1] = assay: microbe, parasite or virus in culture; assay type: cell-based; conditions: Influenza A virus, H3N2, read-out: Baloxavir EC50 (nM) FRA
A(H1N1pdm09)-WT [2] = assay: microbe, parasite or virus in culture; assay type: cell-based, influenza A(H1N1pdm09) virus; conditions: Influenza A virus, read-out: Baloxavir EC50 (nM) FRA
A(H3N2)-WT [3] = assay: yield reduction assay (YRA) in MDCK-SIAT cells; assay type: cell-based, influenza A(H3N2) virus; conditions: A(H3N2) 100% WT, mean ± SD
Protocol: (§1) To perform the yield reduction assay, MDCK-SIAT cells were seeded into a 96-well plate as described above. Cell monolayers were washed with PBS and infected with 100 virus particles (calculated based on virus titer determined by TCID50) for 90 min. […] The plates were incubated for 24 h at 35°C, and the supernatant was collected and quantified to determine the infectious viral titer by using a TCID50 assay.

A(H1N1pdm09)-WT [4] = assay: yield reduction assay (YRA) in MDCK-SIAT cells; assay type: cell-based, influenza A(H1N1pdm09) virus; conditions: A(H1N1pdm09) 100% WT, mean ± SD
Protocol: as §1

[5] = molecular target: NA activity of A(H3N2)-WT (Influenza A virus, UniProt P06818); assay type: biochemical
[6] = molecular target: NA activity of A(H1N1pdm09)-WT (Influenza A virus, UniProt C7FH46); assay type: biochemical; conditions: read-out: IC50 (nM), neuraminidase inhibitor
[7] = Influenza A virus, read-out: Baloxavir EC50 (nM) YRA
[8] = read-out: Oseltamivir IC50 (nM) YRA

SMILES	Duration of viral shedding (A(H1N1pdm09) 100% WT)	reduction in AUC relative to placebo (A(H1N1pdm09) 100% WT)	reduction in mean viral titer 1 day following antiviral treatment (A(H1N1pdm09) 100% WT)	reduction of duration of viral shedding vs placebo (A(H1N1pdm09) 100% WT)	Duration of viral shedding (A(H3N2) 100% WT)	duration of viral shedding shorter than placebo (A(H3N2) 100% WT)	reduction in AUC relative to placebo (A(H3N2) 100% WT)	EC50 (A(H3N2)-WT [1])	EC50 (A(H1N1pdm09)-WT [2])	EC50 (A(H3N2)-WT [3]; [7])	EC50 (A(H1N1pdm09)-WT [4]; [7])	AUC (area under the curve of nasal wash viral titer) (A(H1N1pdm09) 100% WT)	IC50 ([5]; read-out: Oseltamivir IC50 (nM) NIA)	IC50 (A(H3N2)-WT [3]; [8])	IC50 (A(H1N1pdm09)-WT [4]; [8])	IC50 [6]	IC50 ([5]; read-out: IC50 (nM), neuraminidase inhibitor)
O=C1c2c(O)c(=O)ccn2N([C@@H]2c3ccccc3SCc3c2ccc(F)c3F)[C@@H]2COCCN12 [Baloxavir, baloxavir acid]	4 ± 0.8 days	29%	1,000 fold	2.3 days	4.3 days and 4.3 ± 0.9 days	1.7 days	28%	0.6 ± 0.2 nM	1.2 ± 0.2 nM	0.4 ± 0.1 nM	0.3 ± 0.02 nM						
CCOC(=O)C1=C[C@@H](OC(CC)CC)[C@H](NC(C)=O)[C@@H](N)C1 [Oseltamivir, oseltamivir]	[…]		no reduction		[…]							[…]	[…]	[…]	[…]		
CCC(CC)[C@H](NC(C)=O)[C@@H]1[C@H](O)[C@@H](C(=O)O)C[C@H]1N=C(N)N [Peramivir]																0.15 ± 0.03 nM	0.19 ± 0.01 nM

— publication PMC9426601 (mBio, 2022)
